Reference: article PMC10408038 (Journal of medicinal chemistry, 2022)
One block for each compound: values may come before it.

Experiments:
TXRD1 = target: T1, TXRD1 (Homo sapiens, UniProt Q16881); assay: Pulldown with Biotin-TAMRA and western blot analysis, TXRD1; type: cell-based; details: NCI-H522; western blot
T1 sequence (Q16881 151-649 limits assumed): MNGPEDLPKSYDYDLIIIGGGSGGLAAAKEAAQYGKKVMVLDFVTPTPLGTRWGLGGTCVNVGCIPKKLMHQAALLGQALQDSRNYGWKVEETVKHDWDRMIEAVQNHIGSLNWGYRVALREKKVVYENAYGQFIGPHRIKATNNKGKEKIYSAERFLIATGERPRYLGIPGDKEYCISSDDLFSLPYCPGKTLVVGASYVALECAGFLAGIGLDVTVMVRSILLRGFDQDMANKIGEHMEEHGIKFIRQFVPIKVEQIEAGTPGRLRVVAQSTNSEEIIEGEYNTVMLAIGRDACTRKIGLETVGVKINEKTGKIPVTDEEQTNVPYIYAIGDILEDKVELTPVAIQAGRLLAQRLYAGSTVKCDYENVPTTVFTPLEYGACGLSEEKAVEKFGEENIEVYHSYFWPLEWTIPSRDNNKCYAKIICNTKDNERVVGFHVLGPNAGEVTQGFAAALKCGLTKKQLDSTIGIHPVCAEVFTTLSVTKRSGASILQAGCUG

NCI-H522 cells [1] = assay: Incubation time50; type: cell-based; details: RSL3 0.5 μM, 45 2 μM
NCI-H522 cells [2] = assay: In-gel fluorescence labeling competition with probe; type: cell-based; details: competitor 20 μM
[3] = NMR kinetic study of thiol addition; type: physicochemical; details: DMSO-d6
NCI-H522 cells [4] = assay: Cell viability assay; details: for Fold Change: ratio of IC50 (HCT-116)/ IC50 (NCI-H522); for IC50: cell line not given; for fold increase of IC50 in the presence of Liproxstatin-1: NCI-H522, Liproxstatin-1 (0.25 μM)
NCI-H522 cells [5] = assay: C11-BODIPY lipid peroxidation assay; type: cell-based; details: 3 h or 6 h treatment
NCI-H522 cells [6] = assay: Liproxstatin-1 rescue experiments; type: cell-based; details: for rescue of cytotoxicity by Liproxstatin-1: compound at 2–3 times the IC50, Liproxstatin-1 0.25 μM
GPX4 = target: T2, GPX4 (Homo sapiens, UniProt P36969); assay: Pulldown with Biotin-TAMRA and western blot analysis, GPX4; type: cell-based; details: NCI-H522; probe 10 μM; western blot
T2 sequence (P36969 28-197 limits assumed): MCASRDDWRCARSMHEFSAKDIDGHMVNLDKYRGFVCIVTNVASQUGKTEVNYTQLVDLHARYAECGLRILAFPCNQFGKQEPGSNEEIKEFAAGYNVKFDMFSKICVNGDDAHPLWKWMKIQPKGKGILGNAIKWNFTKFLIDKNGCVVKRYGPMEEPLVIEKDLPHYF

GSTO1 = target: T3, GSTO1 (Homo sapiens, UniProt P78417); assay: Pulldown with Biotin-TAMRA and western blot analysis, GSTO1; type: cell-based; details: NCI-H522; probe 10 μM; western blot
T3 sequence (P78417 1-241): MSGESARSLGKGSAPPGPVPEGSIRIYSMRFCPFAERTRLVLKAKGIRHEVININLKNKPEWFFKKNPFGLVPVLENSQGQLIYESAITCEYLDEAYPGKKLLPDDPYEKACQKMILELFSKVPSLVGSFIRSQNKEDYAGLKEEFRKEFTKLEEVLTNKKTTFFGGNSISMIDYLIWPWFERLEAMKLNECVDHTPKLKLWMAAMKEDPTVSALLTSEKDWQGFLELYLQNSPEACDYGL

[7] = in the presence of DABCO, N-Boc-cysteine methyl ester 10 equiv.

labeling of TXRD1 in pulldown (TXRD1): has the ability to label this protein
Compound: C#CCNC(=O)c1csc(C#Cc2ccccc2)n1 [Compound 66, 2-(phenylethynyl)-N-(prop-2-yn-1-yl)thiazole-4-carboxamide]

half-life (t1/2) of thiol addition ([3]; in the absence of DABCO): > 6 h
half-life (t1/2) of thiol addition [3, 7]: < 0.083 h
Compound: C#Cc1nc2ccccc2s1 [Compound 45, 2-ethynylbenzo[d]thiazole]
incubation time after which cells cannot be rescued by washing off the drug (NCI-H522 cells [1]): 1 to 2 h
competition with probe (65) labeling (NCI-H522 cells [2]): high competition

Compound: (E)-N-(4-chlorophenyl)-3-(2-ethynylthiazol-5-yl)acrylamide [Compound 16]
Fold Change (NCI-H522 cells [4]): 62.64

IC50 (NCI-H522 cells [4]; scheme 5D): 6 nM
Compound: (E)-1-(4-(bis(4-chlorophenyl)methyl)piperazin-1-yl)-3-(2-ethynylthiazol-5-yl)prop-2-en-1-one [Compound 78]

Compound: C#CCNC1CCC(c2csc(C#C)n2)=C1C (stereo not drawn) [Compound 64, 3-(2-ethynylthiazol-4-yl)-2-methyl-N-(prop-2-yn-1-yl)cyclopent-2-en-1-amine]
C11-Bodipy oxidation (lipid peroxide levels) versus DMSO (NCI-H522 cells [5]): increased levels of lipid peroxides
rescue of cytotoxicity by Liproxstatin-1 (NCI-H522 cells [6]): significant rescue

Compound: C#Cc1nc(C(=O)N2CCN(C(c3ccc(Cl)cc3)c3ccc(Cl)cc3)CC2)cs1 [BCP-T.A, (4-(bis(4-chlorophenyl)methyl)piperazin-1-yl)(2-ethynylthiazol-4-yl)methanone]
fold increase of IC50 in the presence of Liproxstatin-1 (NCI-H522 cells [4]): approximately 500 fold
C11-Bodipy oxidation (lipid peroxide levels) versus DMSO (NCI-H522 cells [5]): increases lipid peroxides
rescue of cytotoxicity by Liproxstatin-1 (NCI-H522 cells [6]): rescues cells

Compound: C=Cc1nc2ccccc2[se]1 [Compound 42, 2-vinylbenzo[d][1,3]selenazole]
C11-Bodipy oxidation (lipid peroxide levels) versus DMSO (NCI-H522 cells [5]): marginally increase C11-Bodipy oxidation

Compound: N-(4-chlorophenyl)-2-ethynylthiazole-5-carboxamide [Compound 10]
Fold Change (NCI-H522 cells [4]): 29.40

Compound: C=Cc1nc2ccccc2n1C [Compound 39, 1-methyl-2-vinyl-1H-benzo[d]imidazole]
C11-Bodipy oxidation (lipid peroxide levels) versus DMSO (NCI-H522 cells [5]): marginally increase C11-Bodipy oxidation
rescue of cytotoxicity by Liproxstatin-1 (NCI-H522 cells [6]): kill NCI-H522 cells at the same rates both in the absence and presence of Liproxstatin-1

Compound: C#CCNC(=O)c1csc(C#C)n1 [Compound 65, 2-ethynyl-N-(prop-2-yn-1-yl)thiazole-4-carboxamide]
enrichment of GPX4 in pulldown (GPX4): selectively enriched
enrichment of GSTO1 in pulldown (GSTO1): selectively enriched
C11-Bodipy oxidation (lipid peroxide levels) versus DMSO (NCI-H522 cells [5]): increased levels of lipid peroxides
rescue of cytotoxicity by Liproxstatin-1 (NCI-H522 cells [6]): significant rescue

IC50 (NCI-H522 cells [4]; scheme 5 analogs): > 1000 nM
Compound: (4-ethylpiperazin-1-yl)(2-ethynylthiazol-5-yl)methanone [Compound 75]

Compound: COC(=O)c1ccc([C@H]2c3[nH]c4ccccc4c3CC(C(=O)OC)N2C(=O)CCl)cc1 (stereo partly drawn) [RSL3, reference compound]
incubation time after which cells cannot be rescued by washing off the drug (NCI-H522 cells [1]): 1 to 2 h

Compound: Cn1c(I)nc2ccccc21 [Compound 31, 2-iodo-1-methyl-1H-benzo[d]imidazole]
C11-Bodipy oxidation (lipid peroxide levels) versus DMSO (NCI-H522 cells [5]): indistinguishable from the corresponding DMSO treatment
rescue of cytotoxicity by Liproxstatin-1 (NCI-H522 cells [6]): kill NCI-H522 cells at the same rates both in the absence and presence of Liproxstatin-1

Compound: C#CC1=Nc2ccccc2C(C)(C)O1 [Compound 2, 2-ethynyl-4,4-dimethyl-4H-benzo[d][1,3]oxazine, reference compound]
competition with probe (65) labeling (NCI-H522 cells [2]): high competition
rescue of cytotoxicity by Liproxstatin-1 (NCI-H522 cells [6]): significant rescue

Compound: C#Cc1nc(C(=O)OCC)cs1 [Compound 22, ethyl 2-ethynylthiazole-4-carboxylate]
cells rescued by Liproxstatin-1 (NCI-H522 cells [6]; (22) 10 μM, Liproxstatin-1 0.25 μM): 100%
half-life (t1/2) of thiol addition ([3]; in the absence of DABCO): 4.43 h
half-life (t1/2) of thiol addition [3, 7]: 0.315 h

Compound: 2-ethynyl-N-(4-methoxyphenyl)thiazole-5-carboxamide [Compound 8]
Fold Change (NCI-H522 cells [4]): 12.52

fold increase of IC50 in the presence of Liproxstatin-1 (NCI-H522 cells [4]): about 800 fold
Compound: Cc1onc(C(=O)N2CCN(C(c3ccc(Cl)cc3)c3ccc(Cl)cc3)CC2)c1[N+](=O)[O-] [ML-210, (4-(bis(4-chlorophenyl)methyl)piperazin-1-yl)(5-methyl-4-nitroisoxazol-3-yl)methanone, reference compound]

Compound: 2-ethynyl-N-phenylthiazole-5-carboxamide [Compound 9]
Fold Change (NCI-H522 cells [4]): 7.39

Compound: CCOc1ccccc1-n1c(C(C)N2CCN(C(=O)COc3ccc(Cl)cc3)CC2)nc2ccccc2c1=O (stereo not drawn) [erastin]
competition with probe (65) labeling (NCI-H522 cells [2]): no competition was observed
